Molecules are shown by their SMILES. Where a name gives a salt, the structure may show the parent alone.

This test has as its system BRCA-1 silenced HeLa cells (HeLa shBRCA1-GFP). Briefly: Proliferation assay in BRCA-1 silenced HeLa cells. The class given is cell-based. To be noted: Homo sapiens; BRCA1 silenced HeLa cells, 168 hours; read-out: CC50 in the BRCA1 silenced HeLa cells. As to the method:
Proliferation Assay in BRCA-1 Silenced HeLa Cells
Compounds of the present invention were also tested in an anti-proliferative assay in matched pair BRCA1 wt and BRCA1-(shRNA) HeLa cells.
The assay is based on the ability of living cells to convert a redox dye (resazurin) into a fluorescent end product (resofurin). The amount of resofurin produced is directly proportional to the cell number.
HeLa shBRCA1-GFP—These are HeLa cells transduced at an MOI of 100 with a Lentivirus containing a shRNA against BRCA-1 and an expression cassette for GFP. BRCA-1 silencing is more than 80% as assessed by Taqman analysis and the cells stably express GFP.
HeLa THM-GFP—These are HeLa cells transduced at an MOI of 100 with a control vector not expressing any shRNA.
• Seed 300 cell/well in 96 wells viewplate black in 90 ul culture Medium*: • Incubate 4 hours at 37° C., 5% CO2 • Add 10 ul/well of 10× compound (5% DMSO in H2O) • Incubate for 168 hours at 37° C., 5% CO2 • Add 10 ul of Celltiter Blue solution (Promega, G8081) pre-diluted 1:1 in PBS1× • Incubate the mixture for 45′ at 37° C., 5% CO2 • Incubate 15′ at RT in the dark • Read plate at fluorimeter ex: 550 nm; em: 590 nm *Culture Medium: DMEM (GIBCO, 41966-029), 10% FCS (GIBCO, 10106-169), 0.1 mg/ml Penicillin-Streptomycin (GIBCO, 15140-114), 2 mM L-Glutamine (GIBCO, 3042190)
Consider `Cc1c(Cc2ccc(F)c(C(=O)N3CCN(C4Cc5ccccc5C4)C(=O)C3)c2)n[nH]c(=O)c1C` [Example 71, 6-(3-{[4-(2,3-Dihydro-1H-inden-2-yl)-3-oxopiperazin-1-yl]carbonyl}-4-fluorobenzyl)-4,5-dimethyl-3-oxo-2,3-dihydropyridazin-1-ium trifluoroacetate], for which the CC50 (in general, the concentration giving 50% cytotoxicity) is 50 to 500 nM. Consider `Cc1c(Cc2cc(C(=O)N3CCN(C4CCCC4)C(=O)C3)c(F)cc2Br)n[nH]c(=O)c1C` [Example 83, 6-{2-Bromo-5-[(4-cyclopentyl-3-oxopiperazin-1-yl)carbonyl]-4-fluorobenzyl}-4,5-dimethylpyridazin-3(2H)-one], for which the CC50 was less than 50 nM.

On to `Cc1c(Cc2ccc(F)c(C(=O)N3CC(=O)N4CCCC[C@H]4C3)c2)n[nH]c(=O)c1C` [Example 89, (9aS)-2-{5-[(4,5-Dimethyl-6-oxo-1,6-dihydropyridazin-3-yl)methyl]-2-fluorobenzoyl}octahydro-4H-pyrido[1,2-a]pyrazin-4-one trifluoroacetate], for which the CC50 was less than 5000 nM. Regarding `Cc1c(Cc2ccc(F)c(C(=O)N3CCN(C4COc5ccccc5C4)C(=O)C3)c2)n[nH]c(=O)c1C` (stereo not drawn) [Example 98, 6-(3-{[4-(3,4-dihydro-2H-chromen-3-yl)-3-oxopiperazin-1-yl]carbonyl}-4-fluorobenzyl)-4,5-dimethyl-3-oxo-2,3-dihydropyridazin-1-ium trifluoroacetate], the CC50 is less than 50 nM. As for `Cc1c(Cc2ccc(F)c(C(=O)N3CCN(C4CCCc5ccccc54)C(=O)C3)c2)n[nH]c(=O)c1C` (stereo not drawn) [Example 99, 6-(4-fluoro-3-{[3-oxo-4-(1,2,3,4-tetrahydronaphthalen-1-yl)piperazin-1-yl]carbonyl}benzyl)-4,5-dimethyl-3-oxo-2,3-dihydropyridazin-1-ium trifluoroacetate], the figure is less than 50 nM; as for `Cc1c(Cc2ccc(F)c(C(=O)N3CCN(C4CCc5ccccc54)C(=O)C3)c2)n[nH]c(=O)c1C` (stereo not drawn) [Example 100, 6-(3-{[4-(2,3-dihydro-1H-inden-1-yl)-3-oxopiperazin-1-yl]carbonyl}-4-fluorobenzyl)-4,5-dimethyl-3-oxo-2,3-dihydropyridazin-1-ium trifluoroacetate], less than 50 nM; as for `Cc1c(Cc2ccc(F)c(C(=O)N3CCN([C@@H]4C[C@H]5CC[C@@H]4C5)C(=O)C3)c2)n[nH]c(=O)c1C` [Example 101, 6-[3-({4-[(1R,2R,4S)-Bicyclo[2.2.1]hept-2-yl]-3-oxopiperazin-1-yl}carbonyl)-4-fluorobenzyl]-4,5-dimethyl-3-oxo-2,3-dihydropyridazin-1-ium trifluoroacetate], less than 50 nM. As for `Cc1c(Cc2ccc(F)c(C(=O)N3CC(=O)N(C4CCCC4)C(C)C3)c2)n[nH]c(=O)c1C` (stereo not drawn) [Example 102, 6-{3-[(4-cyclopentyl-3-methyl-5-oxopiperazin-1-yl)carbonyl]-4-fluorobenzyl}-4,5-dimethyl-3-oxo-2,3-dihydropyridazin-1-ium trifluoroacetate], the figure is less than 50 nM. As for `Cc1c(Cc2ccc(F)c(C(=O)N3CCN([C@H]4CCCOC4)C(=O)C3)c2)n[nH]c(=O)c1C` [Example 103, 6-[4-fluoro-3-({3-oxo-4-[(3S)-tetrahydro-2H-pyran-3-yl]piperazin-1-yl}carbonyl)benzyl]-4,5-dimethylpyridazin-3(2H)-one], the figure is 50 to 500 nM.

For the compound `Cc1c(Cc2ccc(F)c(C(=O)N3CCN([C@@H]4CCCOC4)C(=O)C3)c2)n[nH]c(=O)c1C` [Example 104, 6-[4-fluoro-3-({3-oxo-4-[(3R)-tetrahydro-2H-pyran-3-yl]piperazin-1-yl}carbonyl)benzyl]-4,5-dimethylpyridazin-3(2H)-one], the CC50 was less than 50 nM.

With `CCN1CCN(C(=O)c2cc(Cc3n[nH]c(=O)c(C(F)(F)F)c3C)ccc2F)CC1=O` [Example 105, 3-{3-[(4-Ethyl-3-oxopiperazin-1-yl)carbonyl]-4-fluorobenzyl}-4-methyl-6-oxo-5-(trifluoromethyl)-1,6-dihydropyridazin-1-ium trifluoroacetate], the CC50 was less than 50 nM.

In the case of `Cc1c(Cc2ccc(F)c(C(=O)N3CCN(C4COC5(CCCC5)C4)C(=O)C3)c2)n[nH]c(=O)c1C` (stereo not drawn) [Example 106, 6-(4-Fluoro-3-{[4-(1-oxaspiro[4.4]non-3-yl)-3-oxopiperazin-1-yl]carbonyl}benzyl)-4,5-dimethylpyridazin-3(2H)-one trifluoroacetate], the CC50 was in the range of 50 to 500 nM. The value for `Cc1c(Cc2ccc(F)c(C(=O)N3CCN(C4COC5(CCCCC5)C4)C(=O)C3)c2)n[nH]c(=O)c1C` (stereo not drawn) [Example 107, 6-(4-Fluoro-3-{[4-(1-oxaspiro[4.5]dec-3-yl)-3-oxopiperazin-1-yl]carbonyl}benzyl)-4,5-dimethylpyridazin-3(2H)-one trifluoroacetate] was 50 to 500 nM.

For `Cc1c(Cc2ccc(F)c(C(=O)N3CCN(C4(C)CCCCC4)C(=O)C3)c2)n[nH]c(=O)c1C` [Example 110, 6-(4-fluoro-3-{[4-(1-methylcyclohexyl)-3-oxopiperazin-1-yl]carbonyl}benzyl)-4,5-dimethyl-3-oxo-2,3-dihydropyridazin-1-ium trifluoroacetate], the CC50 is less than 5000 nM. The value for `Cc1c(Cc2ccc(F)c(C(=O)N3CCN([C@@H]4CCOC4)C(=O)C3)c2)n[nH]c(=O)c1C` [Example 112, 6-[4-Fluoro-3-({3-oxo-4-[(3R)-tetrahydrofuran-3-yl]piperazin-1-yl}carbonyl)benzyl]-4,5-dimethylpyridazin-3(2H)-one] was less than 5000 nM; that for `Cc1nc(C)c(N2CCN(C(=O)c3cc(Cc4n[nH]c(=O)c(C)c4C)ccc3F)CC2=O)s1` [Example 117, 3-(3-{[4-(2,4-Dimethyl-1,3-thiazol-5-yl)-3-oxopiperazin-1-yl]carbonyl}-4-fluorobenzyl)-4,5-dimethyl-6-oxo-1,6-dihydropyridazin-1-ium trifluoroacetate] was 50 to 500 nM; that for `Cc1c(Cc2ccc(F)c(C(=O)N3CCN(C(c4ccc(F)cc4)C(F)F)C(=O)C3)c2)n[nH]c(=O)c1C` (stereo not drawn) [Example 118, 6-[3-({4-[2,2-difluoro-1-(4-fluorophenyl)ethyl]-3-oxopiperazin-1-yl}carbonyl)-4-fluorobenzyl]-4,5-dimethyl-3-oxo-2,3-dihydropyridazin-1-ium trifluoroacetate] was 50 to 500 nM. For `Cc1c(Cc2ccc(F)c(C(=O)N3CCN(C4CCC(c5ccccc5)C4)C(=O)C3)c2)n[nH]c(=O)c1C` (stereo not drawn) [Example 119, 6-(4-fluoro-3-{[3-oxo-4-(3-phenylcyclopentyl)piperazin-1-yl]carbonyl}benzyl)-4,5-dimethyl-3-oxo-2,3-dihydropyridazin-1-ium trifluoroacetate], the CC50 was less than 50 nM. As for `Cc1c(Cc2ccc(F)c(C(=O)N3CCN([C@H](C)c4ccccc4)C(=O)C3)c2)n[nH]c(=O)c1C` [Example 121, 6-[4-fluoro-3-({3-oxo-4-[(1R)-1-phenylethyl]piperazin-1-yl}carbonyl)benzyl]-4,5-dimethyl-3-oxo-2,3-dihydropyridazin-1-ium trifluoroacetate], the CC50 fell in the range of 50 to 500 nM. As for `Cc1c(Cc2ccc(F)c(C(=O)N3CCN([C@@H](C)c4ccccc4)C(=O)C3)c2)n[nH]c(=O)c1C` [Example 122, 6-[4-fluoro-3-({3-oxo-4-[(1S)-1-phenylethyl]piperazin-1-yl}carbonyl)benzyl]-4,5-dimethyl-3-oxo-2,3-dihydropyridazin-1-ium trifluoroacetate], the figure is 50 to 500 nM; as for `Cc1c(Cc2ccc(F)c(C(=O)N3CCN([C@H](c4ccccc4)C(F)F)C(=O)C3)c2)n[nH]c(=O)c1C` [Example 123, 6-(3-{[4-(2,2-difluoro-1R-phenylethyl)-3-oxopiperazin-1-yl]carbonyl}-4-fluorobenzyl)-4,5-dimethyl-3-oxo-2,3-dihydropyridazin-1-ium trifluoroacetate], 50 to 500 nM.

As to `Cc1c(Cc2ccc(F)c(C(=O)N3CC(=O)N(C4CCC(F)(F)CC4)C(C)C3)c2)n[nH]c(=O)c1C` (stereo not drawn) [Example 126, 6-(3-{[4-(4,4-Difluorocyclohexyl)-3-methyl-5-oxopiperazin-1-yl]carbonyl}-4-fluorobenzyl)-4,5-dimethylpyridazin-3(2H)-one trifluoroacetate], the CC50 was less than 50 nM. As for `Cc1c(Cc2ccc(F)c(C(=O)N3CC(=O)N(C4CCC(F)(F)C4)C(C)C3)c2)n[nH]c(=O)c1C` (stereo not drawn) [Example 127, 6-(3-{[4-(3,3-Difluorocyclopentyl)-3-methyl-5-oxopiperazin-1-yl]carbonyl}-4-fluorobenzyl)-4,5-dimethylpyridazin-3(2H)-one trifluoroacetate], the figure is less than 50 nM; as for `Cc1c(Cc2ccc(F)c(C(=O)N3CC(=O)N(C4CCC(C)(C)CC4)C(C)C3)c2)n[nH]c(=O)c1C` (stereo not drawn) [Example 128, 6-(3-{[4-(4,4-Dimethylcyclohexyl)-3-methyl-5-oxopiperazin-1-yl]carbonyl}-4-fluorobenzyl)-4,5-dimethylpyridazin-3(2H)-one trifluoroacetate], less than 50 nM.

These data come from US8268827B2, “Pyridazinone derivatives as PARP inhibitors” (Istituto di Ricerche di Biologia Molecolare P. Angeletti …, priority 2007, dated 2012).
